Reference: patent US12025619B2, “Methods and systems for detecting prostaglandins by LC-MS/MS” (Laboratory Corporation of America Holdings, priority 2020, dated 2024)
Where “and” joins values, the source holds several entries; their conditions need not be identical. Equal entries are not always repeated.

Tests used:
[1] = Autosampler stability, urine assay; assay type: physicochemical; details: human urine assay, stored refrigerated for up to 3 days and 8 hours
Description: Autosampler stability. […] To validate autosampler stability a batch containing two sets of calibrators and QCs was processed as normal. After completion of assay processing the first set of calibrators, QCs, and normal urines was injected and analyzed. After analysis the assay batch was stored refrigerated in the autosampler prior to reinjection of the first set of samples and first time injection of the second set of calibrators and QCs. The 96-well plates containing the processed assay were stored refrigerated in the autosampler for approximately 3 days, 8 hours, and 36 minutes before injection was completed for all samples. Post-storage recoveries were based on target concentrations for the stored, first time injection samples. Reinjected samples were compared to initial injection results to determine recoveries. Autosampler study results met acceptance criteria. […] Assay batches stored refrigerated for up to 3 days and 8 hours were stable and suitable for first time injection or re-injection to determine Prostaglandin D2 concentrations in human urine.

[2] = Short-term and freeze/thaw stability of PGD2 in urine; assay type: physicochemical, human
Description: Urine samples were collected into plastic containers. Specimens were stored according to the following conditions: • Short Term Storage • Urine Frozen (≤−10° C. and ≤−55° C.): 8 days • Urine Refrigerated (2-8° C.): 3 days • Urine Room Temperature (15-30° C.): 3 days • Urine Freeze/Thaw (≤−10° C.): 6 Cycles • Long Term Storage • Urine Frozen (≤−10° C.): Stability testing in process • Shipping Conditions: • Urine Frozen (≤−10° C.):—on dry ice PGD2 was stable for at least 3 days at 4° C. and at room temperature and 8 days frozen (≤−10° C. or ≤−55° C.). PGD2 was stable for at least 6 freeze-thaw cycles (≤−10° C. or ≤−55° C.). [table]

[3] = Autosampler stability, serum assay; assay type: physicochemical; details: human serum assay, stored refrigerated for up to 3 days and 22 hours
Description: Autosampler stability. […] To validate autosampler stability a batch containing two sets of calibrators and QCs was processed as normal. After completion of assay processing the first set of calibrators and QCs was injected and analyzed. After analysis the assay batch was stored refrigerated in the autosampler prior to reinjection of the first set of samples and first time injection of the second set of calibrators and QCs. The 96-well plates containing the processed assay were stored refrigerated in the autosampler for approximately 3 days, 22 hours, and 16 minutes before injection was completed for all samples. Post-storage recoveries were based on target concentrations for the stored, first time injection samples. Reinjected samples were compared to initial injection results to determine recoveries. Autosampler study results met acceptance criteria. Assay batches stored refrigerated for up to 3 days and 22 hours are stable and suitable for first time injection or re-injection to determine Prostaglandin D2 concentrations in human serum.

[4] = Calibrator freeze/thaw stability; assay type: physicochemical; details: for replicates within 85-115% of the target: calibrator matrix
Description: Calibrator freeze/thaw stability. Calibrator freeze/thaw stability was examined by analyzing using an accuracy sample made in calibrator amatrix (A4 at 250 pg/mL). The accuracy sample underwent up to 6 freeze/thaw cycles prior to stability testing. Freeze/thaw cycles were performed as per Example 3. Times and temperatures were recorded on the incubation study stability forms. All testing was performed in triplicate. The target concentration for the accuracy sample was used to define acceptable ranges for measured concentrations after freeze/thaw cycles. For the first five freeze/thaw cycles, 100% of replicates were within 85-115% of the target (TABLE 15). For the sixth freeze/thaw cycle >60% of replicates were within 85-115% of the target (TABLE 15). […] Prostaglandin D2 is stable in calibrator matrix after 5 freeze/thaw cycles (6 total thaws).

[5] = test system: human ovarian tumor cell; details: read-out: IC50, inhibition of human ovarian tumor cell proliferation; cited from earlier work
[6] = Short-term and freeze/thaw stability in human serum; assay type: physicochemical; details: for Mean concentration at stability time point / Measured Concentration (replicates): Donors 1-3; for Measured Concentration (replicates): human serum
Description: Serum samples were collected into red top tubes and frozen immediately. Specimens were stored according to the following conditions: • Short Term Storage • Serum Frozen (≤−10° C. and ≤−55° C.): 7 days • Serum Refrigerated (2-8° C.): Strictly frozen storage.
Short-term and freeze/thaw stability. Sample stability was confirmed by testing human serum from three individual donors that was stored at each of the different conditions likely to be encountered in sample handling and laboratory analysis. […] An additional set of the freshly collected serum underwent up to 6 freeze/thaw cycles prior to stability testing. All serum stability samples and baseline stored samples were tested with freshly prepared calibrators. All testing was performed in triplicate.

[7] = Freeze/Thaw (<−10° C.), 1 Cycle (2 Thaws)
[8] = Freeze/Thaw (<−10° C.), 2 Cycles (3 Thaws)
[9] = Refrigerated (2-8° C.), 3.5 Hours

## CCCCC[C@H](O)/C=C/[C@H]1C(=O)C[C@H](O)[C@@H]1C/C=C\CCCC(=O)O [PGD2, prostaglandin D2]
[1]
  Autosampler stability of processed assay batches: stable
[2]; 4° C.
  stable for at least (time): at least 3 days
[2]; frozen (≤−10° C. or ≤−55° C.)
  stable for at least (time): ≥ 8 days
[2]; room temperature
  stable for at least (time): at least 3 days
[2]; ≤−10° C. or ≤−55° C.
  stable for at least (freeze-thaw cycles): at least 6 freeze-thaw cycles
[3]
  Autosampler stability of processed assay batches: stable
[4]; accuracy sample A4 at 250 pg/mL
  stable in calibrator matrix after (freeze/thaw cycles): 5 freeze/thaw cycles
[4]; first five freeze/thaw cycles
  replicates within 85-115% of the target: 100%
[4]; sixth freeze/thaw cycle
  replicates within 85-115% of the target: > 60%
[5]
  IC50: 6.8 µM
[6]; [7]
  % of replicates within 85-115% of mean at baseline: 100.00%
  Measured Concentration (replicates): 23.2 pg/mL and 95.8 pg/mL and 52.9 pg/mL and 21.1 pg/mL and 107 pg/mL (2×) and 52.4 pg/mL and 23.4 pg/mL and 60.5 pg/mL
[6]; [8]
  % of replicates within 85-115% of mean at baseline: 77.78%
  Measured Concentration (replicates): 22.1 pg/mL and 93.3 pg/mL and 19.4 pg/mL and 51.4 pg/mL and 19.7 pg/mL and 92.0 pg/mL and 51.2 pg/mL
[6]; Freeze/Thaw (<−10° C.), 3 Cycles (4 Thaws)
  % of replicates within 85-115% of mean at baseline: 0.00%
[6]; Freeze/Thaw (<−10° C.), 6 Cycles (7 Thaws)
  % of replicates within 85-115% of mean at baseline: 0.00%
[6]; Frozen (<−55° C.), 7 Days
  % of replicates within 85-115% of mean at baseline: 100.00%
  Measured Concentration (replicates): 24.5 pg/mL (3×) and 119 pg/mL and 65.7 pg/mL and 121 pg/mL and 66.8 pg/mL and 122 pg/mL and 67.9 pg/mL
[6]; Frozen (≤−10° C.), 7 Days
  % of replicates within 85-115% of mean at baseline: 100.00%
  Measured Concentration (replicates): 23.3 pg/mL (2×) and 101 pg/mL and 53.8 pg/mL and 113 pg/mL (2×) and 57.9 pg/mL and 24.2 pg/mL and 62.3 pg/mL
[6]; Refrigerated (2-8° C.), 1 Day
  % of replicates within 85-115% of mean at baseline: 0.00%
[6]; Refrigerated (2-8° C.), 3 Days
  % of replicates within 85-115% of mean at baseline: 0.00%
  Mean concentration at stability time point: 3.83 pg/mL and 4.93 pg/mL and 3.33 pg/mL
[6]; [9]
  % of replicates within 85-115% of mean at baseline: 88.89%
  Measured Concentration (replicates): 103 pg/mL and 57.9 pg/mL and 20.9 pg/mL and 107 pg/mL and 57.6 pg/mL and 19.9 pg/mL and 93.5 pg/mL and 54.7 pg/mL
[6]; Refrigerated (2-8° C.), 7 Hours
  % of replicates within 85-115% of mean at baseline: 0.00%
[6]; Room Temp (15-30° C.), 1 Day
  % of replicates within 85-115% of mean at baseline: 0.00%
  Mean concentration at stability time point: 6.95 pg/mL and 4.42 pg/mL and 4.22 pg/mL
[6]; Room Temp (15-30° C.), 3 Days
  % of replicates within 85-115% of mean at baseline: 0.00%
  Mean concentration at stability time point: 9.17 pg/mL and 6.27 pg/mL and 5.78 pg/mL
[6]; Room Temp (15-30° C.), 3.5 Hours
  % of replicates within 85-115% of mean at baseline: 0.00%
[6]; Room Temp (15-30° C.), 7 Hours
  % of replicates within 85-115% of mean at baseline: 0.00%
[6]; frozen and refrigerated serum
  Short-term and freeze/thaw stability study result: did meet acceptance criteria
[6]; day of collection, time 0
  Measured Concentration (replicates): 21.9 pg/mL and 104 pg/mL and 60.4 pg/mL and 22.0 pg/mL and 107 pg/mL and 59.1 pg/mL and 24.7 pg/mL and 111 pg/mL and 55.6 pg/mL
[6]; serum stored at room temperature
  Short-term stability study result: did not meet acceptance criteria
